In paper PMC12563536, “A Novel Allosteric Inhibitor Targeting IMPDH at Y233 Overcomes Resistance to Tyrosine Kinase Inhibitors in Lymphoma” (Cancers, 2025):
pIC50: −log10 of the molar value.

Tests used:
Assay type in all cases: biochemical
[1] = biological target: T1, recombinant human IMPDH2 (Homo sapiens, UniProt P12268); assay: IMPDH activity assay, 96-well screen; conditions: read-out: % inhibition at 10 μM
T1 construct: commercial recombinant protein (R&D Systems); 514 residues full length; tetramer/octamer
T1 sequence (P12268 2-514): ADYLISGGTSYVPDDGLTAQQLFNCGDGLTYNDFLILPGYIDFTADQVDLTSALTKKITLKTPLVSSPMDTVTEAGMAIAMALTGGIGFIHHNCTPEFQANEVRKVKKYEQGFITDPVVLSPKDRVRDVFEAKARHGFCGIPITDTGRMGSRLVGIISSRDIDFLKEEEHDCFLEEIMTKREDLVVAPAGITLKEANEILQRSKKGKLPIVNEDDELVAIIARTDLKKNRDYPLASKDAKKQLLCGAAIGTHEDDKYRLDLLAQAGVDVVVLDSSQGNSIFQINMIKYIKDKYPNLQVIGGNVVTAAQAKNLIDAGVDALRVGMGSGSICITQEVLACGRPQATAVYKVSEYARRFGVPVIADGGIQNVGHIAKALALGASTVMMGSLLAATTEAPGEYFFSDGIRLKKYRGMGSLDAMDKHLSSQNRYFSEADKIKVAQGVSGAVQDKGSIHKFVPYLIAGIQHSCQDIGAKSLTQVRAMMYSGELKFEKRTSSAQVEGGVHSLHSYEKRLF

[2] = biological target: T1, recombinant human IMPDH2; assay: IMPDH activity assay kit, microplate; conditions: targeted to allosteric GTP-binding site of the CBS domain (site from docking)
[3] = biological target: T1, recombinant human IMPDH2; assay: IMPDH activity assay kit, microplate, […] min preincubation; conditions: dose-dependent, 50-200 µM tested

Row | inhibition at 10 µM [1] [%] | Structure (SMILES) | other results
1 | > 52 | O=C1c2ccccc2C(=O)C1C(c1ccc([N+](=O)[O-])cc1)C1C(=O)c2ccccc2C1=O [compound 12, comp-12] | 
2 | > 32 | CN(C)c1ccc(C=c2sc3nc(=O)c(-c4ccccc4NC(=O)C(F)(F)F)nn3c2=O)cc1 [compound 5, comp-5] | 
3 |  | O=C1C=CC(=O)c2c(O)c(N3CCN(CCOCCO)CC3)c(Br)c(O)c21 [compound 10, Comp-10] | pIC50 [2]: ~6.59
4 |  | CCCCCCCC(=O)OC[C@H](COP(=O)(O)O[C@@H]1[C@H](O)[C@H](OP(=O)(O)O)[C@@H](O)[C@H](O)[C@H]1O)OC(=O)CCCCCCC [PI(3)P diC8] | % inhibition at 200 μM [3]: > 50%
